We go through two molecules from patent US12503503B2, “Bispecific anti-VEGF/ANG2 antibody formulation” (Hoffmann-La Roche Inc., priority 2018, dated 2025).

Read-outs that look alike come from different tables or passages of the source.

Series [1] relates to New Zealand White rabbits. To be noted: methionine (5-25 mM) in vehicle, intravitreal 50 μL/eye up to six times, 14 days apart. The procedure: (§1) Three studies (in cynomolgus monkeys and in New Zealand White rabbits) were conducted in which methionine (5-25 mM) was a component of the vehicle, administered intravitreally (also 50 μL/eye) up to six times, 14 days apart.
Series [2] deals with cynomolgus monkeys. As to conditions: 14 days apart. The method, then: A toxicity study in cynomolgus monkeys was conducted in which methionine (10 mM) was a component of the vehicle and of the formulated test article CrossMAb VEGFang2-0016 (faricimab). In this study, a total of 12 animals (6 males/6 females) were treated intravitreal with 50 μL/eye two times, 14 days apart. The left eyes were treated with the vehicle (containing 10 mM methionine) and the right eyes were treated with the formulated test article CrossMAb VEGFang2-0016 (faricimab), also containing 10 mM methionine.
as §1

In series [3] the target is TIE2 (Homo sapiens, UniProt Q02763). As to conditions: Maisonpierre et al., Science 277 (1997); read-out: affinity to TIE2 (Kd); cited from earlier work.
TIE2, sequence (Q02763 23-1124, species assumed): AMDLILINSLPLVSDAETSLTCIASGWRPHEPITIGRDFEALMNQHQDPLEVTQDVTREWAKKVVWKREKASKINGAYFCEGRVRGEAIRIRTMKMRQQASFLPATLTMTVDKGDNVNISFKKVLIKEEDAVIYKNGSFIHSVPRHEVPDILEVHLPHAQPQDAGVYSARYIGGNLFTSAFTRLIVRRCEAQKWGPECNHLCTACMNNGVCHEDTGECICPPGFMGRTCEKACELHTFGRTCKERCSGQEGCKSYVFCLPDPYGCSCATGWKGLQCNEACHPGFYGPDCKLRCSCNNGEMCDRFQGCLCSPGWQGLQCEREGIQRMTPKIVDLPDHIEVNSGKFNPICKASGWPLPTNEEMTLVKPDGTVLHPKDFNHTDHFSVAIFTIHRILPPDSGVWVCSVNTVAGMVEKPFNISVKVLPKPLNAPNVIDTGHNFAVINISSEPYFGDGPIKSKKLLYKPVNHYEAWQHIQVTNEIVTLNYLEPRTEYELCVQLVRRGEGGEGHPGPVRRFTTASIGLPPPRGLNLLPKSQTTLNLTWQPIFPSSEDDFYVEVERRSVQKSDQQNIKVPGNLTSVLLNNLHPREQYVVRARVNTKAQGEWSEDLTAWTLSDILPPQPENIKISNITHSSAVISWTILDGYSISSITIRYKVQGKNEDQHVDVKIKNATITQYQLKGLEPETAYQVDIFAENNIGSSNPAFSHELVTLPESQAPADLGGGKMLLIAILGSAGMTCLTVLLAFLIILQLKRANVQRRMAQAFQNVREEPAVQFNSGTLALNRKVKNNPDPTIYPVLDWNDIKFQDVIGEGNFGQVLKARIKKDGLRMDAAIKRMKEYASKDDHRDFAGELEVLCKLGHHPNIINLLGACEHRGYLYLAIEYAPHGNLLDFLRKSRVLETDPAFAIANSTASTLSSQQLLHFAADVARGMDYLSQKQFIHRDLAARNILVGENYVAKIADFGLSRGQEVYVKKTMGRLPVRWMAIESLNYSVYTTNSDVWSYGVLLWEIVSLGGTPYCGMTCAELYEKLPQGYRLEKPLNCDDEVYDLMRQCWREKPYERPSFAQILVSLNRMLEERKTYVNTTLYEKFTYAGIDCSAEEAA

On to `CSCC[C@H](N)C(=O)O` [methionine], for which the “ocular effects of methionine” value was “no ocular effects” in series [1]; “no ocular effects” in series [2] (10 mM methionine in vehicle and formulated faricimab, intravitreal 50 μL/eye two times); “no ocular effects” in series [2] (methionine (5-25 mM) in vehicle, intravitreal 50 μL/eye up to six times).

B1: Ang-1: angiopoietin-1, ligand of TIE2 (protein, UniProt Q15389 16-498, looked up)
Angiopoietin-1: HIGCSNQRRSPENSGRRYNRIQHGQCAYTFILPEHDGNCRESTTDQYNTNALQRDAPHVEPDFSSQKLQHLEHVMENYTQWLQKLENYIVENMKSEMAQIQQNAVQNHTATMLEIGTSLLSQTAEQTRKLTDVETQVLNQTSRLEIQLLENSLSTYKLEKQLLQQTNEILKIHEKNSLLEHKILEMEGKHKEELDTLKEEKENLQGLVTRQTYIIQELEKQLNRATTNNSVLQKQQLELMDTVHNLVNLCTKEGVLLKGGKREEEKPFRDCADVYQAGFNKSGIYTIYINNMPEPKKVFCNMDVNGGGWTVIQHREDGSLDFQRGWKEYKMGFGNPSGEYWLGNEFIFAITSQRQYMLRIELMDWEGNRAYSQYDRFHIGNEKQNYRLYLKGHTGTAGKQSSLILHGADFSTKDADNDNCMCKCALMLTGGWWFDACGPSNLNGMFYTAGQNHGKLNGIKWHYFKGPSYSLRSTTMMIRPLDF
What is called Kd is the constant that tells how readily two partners part at equilibrium. As to B1, in series [3], the Kd is 3 nM.
